In patent publication US20030068789A1, “Method for cultivating microorganism” (priority 2000, published 2003):

Tested on: microorganism having nitrile hydratase activity
Assay: Growth inhibition caused by cobalt ions in cultivating a microorganism
Type: cell-based
Details: sugar present in culture solution as carbon source
From the text: The present inventors have conducted intensive studies on culture conditions to industrially obtain microbial cells having nitrile hydratase activity within a short period and at a high yield. […] Thus, the present invention has been accomplished.
As a result, it is possible to obtain microbial cells having nitrile hydratase enzyme activity within a short period and at a high yield

Structure (SMILES) | growth inhibition caused by cobalt ions
O=C(CO)[C@@H](O)[C@H](O)[C@H](O)CO [fructose] | can reduce growth inhibition caused by cobalt ions
OC[C@@H](O)[C@@H](O)[C@H](O)[C@H](O)CO [mannitol] | can reduce growth inhibition caused by cobalt ions
